Assays:
[1] = tested on: AVEFA; test: Post-emergence herbicidal action against AVEFA; assay type: in vivo, Avena fatua; details: application rate 80 g/ha, rated visually after about 3 weeks
Procedure: (§1) [table] 2. Post-emergence herbicidal action against harmful plants and crop plant compatibility Seeds of monocotyledonous and dicotyledonous weeds and crop plants are placed in sandy loam in plastic or wood-fibre pots, covered with soil and cultivated in a greenhouse under controlled growth conditions. 2 to 3 weeks after sowing, the test plants are treated at the one-leaf stage. The compounds of the invention, formulated in the form of wettable powders (WP) or as emulsion concentrates (EC), are then sprayed onto the green parts of the plants as aqueous suspension or emulsion with addition of 0.5% additive at a water application rate of 600 l/ha (converted). After the test plants have been kept in the greenhouse under optimum growth conditions for about 3 weeks, the activity of the preparations is rated visually in comparison to untreated controls. For example, 100% activity=the plants have died, 0% activity=like control plants.

[2] = tested on: AMARE; test: Post-emergence herbicidal action against AMARE; assay type: in vivo, Amaranthus retroflexus; details: application rate 80 g/ha, rated visually about 3 weeks after treatment
Procedure: as §1

[3] = tested on: VERPE; test: Post-emergence herbicidal action against VERPE; assay type: in vivo, Veronica persica; details: application rate 80 g/ha
Procedure: as §1

[4] = tested on: POLCO; test: Post-emergence herbicidal action against POLCO; assay type: in vivo, Polygonum convolvulus; details: application rate 80 g/ha, rated visually about 3 weeks after treatment
Procedure: as §1

[5] = tested on: LOLRI; test: Post-emergence herbicidal action against LOLRI; assay type: in vivo, Lolium rigidum; details: application rate 80 g/ha, rated visually after about 3 weeks
Procedure: as §1

[6] = tested on: ABUTH; test: Post-emergence herbicidal action against ABUTH; assay type: in vivo, Abutilon theophrasti; details: application rate 80 g/ha, rated visually about 3 weeks after treatment
Procedure: as §1

[7] = tested on: ECHCG; test: Post-emergence herbicidal action against ECHCG; assay type: in vivo, Echinochloa crus-galli; details: application rate 80 g/ha, rated visually after about 3 weeks
Procedure: as §1

[8] = tested on: SETVI; test: Post-emergence herbicidal action against SETVI; assay type: in vivo, Setaria viridis; details: application rate 80 g/ha, rated visually after about 3 weeks
Procedure: as §1

[9] = tested on: ALOMY; test: Post-emergence herbicidal action against ALOMY; assay type: in vivo, Alopecurus myosuroides; details: application rate 80 g/ha, rated visually after about 3 weeks
Procedure: as §1

[10] = tested on: HORMU; test: Post-emergence herbicidal action against HORMU; assay type: in vivo, Hordeum murinum; details: application rate 80 g/ha
Procedure: as §1

[11] = tested on: STEME; test: Post-emergence herbicidal action against STEME; assay type: in vivo, Stellaria media; details: application rate 80 g/ha, rated visually about 3 weeks after treatment
Procedure: as §1

## C=CC1(C(=O)NC2C=CC(C(=O)N3CCCCO3)C2)CC(c2cc(F)cc(F)c2)=NO1 (mixture of isomers) [II-30]
[1]
  Herbicidal action against [%] AVEFA: 100%
[2]
  Herbicidal action against [%] AMARE: 80%
[3]
  Herbicidal action against [%] VERPE: 80%
[4]
  Herbicidal action against [%] POLCO: 90%
[5]
  Herbicidal action against [%] LOLRI: 90%
[6]
  Herbicidal action against [%] ABUTH: 80%
[7]
  Herbicidal action against [%] ECHCG: 90%
[8]
  Herbicidal action against [%] SETVI: 80%
[9]
  Herbicidal action against [%] ALOMY: 100%

## COC(=O)C(C)(C)NC(=O)C1C=CC(NC(=O)C2(C)CC(c3cc(F)cc(F)c3)=NO2)C1 (mixture of isomers) [II-09]
[1]
  Herbicidal action against [%] AVEFA: 90%
[4]
  Herbicidal action against [%] POLCO: 90%
[5]
  Herbicidal action against [%] LOLRI: 80%

## C=CC1(C(=O)NC2C=CC(C(=O)NC(C)(C)C(=O)OC)C2)CC(c2cc(F)cc(F)c2)=NO1 (stereo not shown) [II-21]
[4]
  Herbicidal action against [%] POLCO: 80%

## C=CC1(C(=O)NC2C=CC(C(=O)NC(C)(C)C(=O)OC)C2)CC(c2cc(F)cc(F)c2)=NO1 (stereo not shown) [II-22]
[1]
  Herbicidal action against [%] AVEFA: 90%
[3]
  Herbicidal action against [%] VERPE: 80%
[5]
  Herbicidal action against [%] LOLRI: 90%
[10]
  Herbicidal action against [%] HORMU: 90%
[11]
  Herbicidal action against [%] STEME: 80%
[9]
  Herbicidal action against [%] ALOMY: 80%

## C=CC1(C(=O)NC2C=CC(C(=O)NC(C(=O)OC)C(C)C)C2)CC(c2cc(F)cc(F)c2)=NO1 (mixture of isomers) [II-25]
[1]
  Herbicidal action against [%] AVEFA: 90%
[2]
  Herbicidal action against [%] AMARE: 80%
[4]
  Herbicidal action against [%] POLCO: 80%
[5]
  Herbicidal action against [%] LOLRI: 90%
[7]
  Herbicidal action against [%] ECHCG: 80%
[10]
  Herbicidal action against [%] HORMU: 100%
[9]
  Herbicidal action against [%] ALOMY: 80%

## CCOC(=O)C1C=CC(NC(=O)C2(C(F)(F)F)CC(c3cc(OC)cc(OC)c3)=NO2)C1 (mixture of isomers) [Example I-043]
[1]
  Herbicidal action against [%] AVEFA: 90%
[2]
  Herbicidal action against [%] AMARE: 80%
[3]
  Herbicidal action against [%] VERPE: 80%
[5]
  Herbicidal action against [%] LOLRI: 90%
[6]
  Herbicidal action against [%] ABUTH: 80%
[7]
  Herbicidal action against [%] ECHCG: 80%
[10]
  Herbicidal action against [%] HORMU: 80%
[8]
  Herbicidal action against [%] SETVI: 80%
[11]
  Herbicidal action against [%] STEME: 80%
[9]
  Herbicidal action against [%] ALOMY: 90%

## CC(C)(C)OC(=O)C1C=CC(NC(=O)C2(C(F)(F)F)CC(c3cc(F)cc(F)c3)=NO2)C1 (mixture of isomers) [Example I-066]
[1]
  Herbicidal action against [%] AVEFA: 90%
[2]
  Herbicidal action against [%] AMARE: 90%
[3]
  Herbicidal action against [%] VERPE: 80%
[4]
  Herbicidal action against [%] POLCO: 80%
[5]
  Herbicidal action against [%] LOLRI: 90%
[7]
  Herbicidal action against [%] ECHCG: 80%
[10]
  Herbicidal action against [%] HORMU: 90%
[8]
  Herbicidal action against [%] SETVI: 90%
[9]
  Herbicidal action against [%] ALOMY: 90%

## C=CC1(C(=O)NC2C=CC(C(=O)N3CCCO3)C2)CC(c2cc(F)cc(F)c2)=NO1 (stereo not shown) [II-27]
[1]
  Herbicidal action against [%] AVEFA: 90%
[2]
  Herbicidal action against [%] AMARE: 80%
[3]
  Herbicidal action against [%] VERPE: 90%
[4]
  Herbicidal action against [%] POLCO: 90%
[5]
  Herbicidal action against [%] LOLRI: 90%
[7]
  Herbicidal action against [%] ECHCG: 90%
[10]
  Herbicidal action against [%] HORMU: 80%
[8]
  Herbicidal action against [%] SETVI: 80%
[11]
  Herbicidal action against [%] STEME: 90%
[9]
  Herbicidal action against [%] ALOMY: 90%

## O=C(OCCCl)[C@@H]1C=C[C@H](NC(=O)C2(C(F)(F)F)CC(c3ccccc3)=NO2)C1 (stereo partly shown) [Example I-025]
[1]
  Herbicidal action against [%] AVEFA: 90%
[2]
  Herbicidal action against [%] AMARE: 90%
[4]
  Herbicidal action against [%] POLCO: 100%
[5]
  Herbicidal action against [%] LOLRI: 90%
[7]
  Herbicidal action against [%] ECHCG: 80%
[10]
  Herbicidal action against [%] HORMU: 80%
[8]
  Herbicidal action against [%] SETVI: 90%
[11]
  Herbicidal action against [%] STEME: 80%
[9]
  Herbicidal action against [%] ALOMY: 90%

## Cc1cc(C2=NOC(C(=O)NC3C=CC(C(=O)OCC(F)(F)F)C3)(C(F)(F)F)C2)cc(C(F)(F)F)c1 (mixture of isomers) [Example I-050]
[1]
  Herbicidal action against [%] AVEFA: 90%
[2]
  Herbicidal action against [%] AMARE: 80%
[6]
  Herbicidal action against [%] ABUTH: 80%
[10]
  Herbicidal action against [%] HORMU: 90%
[9]
  Herbicidal action against [%] ALOMY: 90%

## COCCOC(=O)C1C=CC(NC(=O)C2(C)CC(c3cccc(C#N)c3)=NO2)C1 (mixture of isomers) [Example I-081]
[1]
  Herbicidal action against [%] AVEFA: 100%
[2]
  Herbicidal action against [%] AMARE: 80%
[3]
  Herbicidal action against [%] VERPE: 80%
[4]
  Herbicidal action against [%] POLCO: 90%
[5]
  Herbicidal action against [%] LOLRI: 100%
[6]
  Herbicidal action against [%] ABUTH: 80%
[10]
  Herbicidal action against [%] HORMU: 100%
[8]
  Herbicidal action against [%] SETVI: 80%
[11]
  Herbicidal action against [%] STEME: 90%

## Cc1cc(C)cc(C2=NOC(C(=O)NC3C=CC(C(=O)OCCCl)C3)(C(F)(F)F)C2)c1 (mixture of isomers) [Example I-056]
[1]
  Herbicidal action against [%] AVEFA: 90%
[2]
  Herbicidal action against [%] AMARE: 80%
[3]
  Herbicidal action against [%] VERPE: 80%
[4]
  Herbicidal action against [%] POLCO: 80%
[5]
  Herbicidal action against [%] LOLRI: 90%
[7]
  Herbicidal action against [%] ECHCG: 80%
[10]
  Herbicidal action against [%] HORMU: 80%
[8]
  Herbicidal action against [%] SETVI: 80%
[11]
  Herbicidal action against [%] STEME: 90%
[9]
  Herbicidal action against [%] ALOMY: 100%

## C=CC1(C(=O)NC2C=CC(C(=O)NC(C)(C)C#N)C2)CC(c2cc(F)cc(F)c2)=NO1 (mixture of isomers) [II-20]
[1]
  Herbicidal action against [%] AVEFA: 100%
[11]
  Herbicidal action against [%] STEME: 80%

## C=CC1(C(=O)N[C@H]2C=C[C@H](C(=O)N3CCCCO3)C2)CC(c2cc(F)cc(F)c2)=NO1 (stereo partly shown) [II-29]
[1]
  Herbicidal action against [%] AVEFA: 80%
[2]
  Herbicidal action against [%] AMARE: 80%
[3]
  Herbicidal action against [%] VERPE: 80%
[4]
  Herbicidal action against [%] POLCO: 80%
[5]
  Herbicidal action against [%] LOLRI: 90%
[7]
  Herbicidal action against [%] ECHCG: 90%
[10]
  Herbicidal action against [%] HORMU: 80%
[8]
  Herbicidal action against [%] SETVI: 80%

## COC(=O)CS(=O)(=O)NC(=O)C1C=CC(NC(=O)C2(C(F)(F)F)CC(c3cc(F)cc(F)c3)=NO2)C1 (stereo not shown) [II-39]
[1]
  Herbicidal action against [%] AVEFA: 90%
[2]
  Herbicidal action against [%] AMARE: 80%
[3]
  Herbicidal action against [%] VERPE: 80%
[5]
  Herbicidal action against [%] LOLRI: 80%
[10]
  Herbicidal action against [%] HORMU: 80%
[9]
  Herbicidal action against [%] ALOMY: 80%

## C=CC1(C(=O)NC2C=CC(C(=O)NC(C#N)C(C)C)C2)CC(c2cc(F)cc(F)c2)=NO1 (mixture of isomers) [II-17]
[9]
  Herbicidal action against [%] ALOMY: 80%

## C=CC1(C(=O)NC2C=CC(C(=O)OC(C)C)C2)CC(c2cc(F)cc(F)c2)=NO1 (mixture of isomers) [Example I-034]
[1]
  Herbicidal action against [%] AVEFA: 90%
[3]
  Herbicidal action against [%] VERPE: 90%
[4]
  Herbicidal action against [%] POLCO: 80%
[5]
  Herbicidal action against [%] LOLRI: 100%
[6]
  Herbicidal action against [%] ABUTH: 80%
[7]
  Herbicidal action against [%] ECHCG: 80%
[10]
  Herbicidal action against [%] HORMU: 90%
[8]
  Herbicidal action against [%] SETVI: 80%
[11]
  Herbicidal action against [%] STEME: 90%
[9]
  Herbicidal action against [%] ALOMY: 90%
